Read-outs that look alike come from different tables or passages of the source.
Key:
squirrel monkeys = assay: Monkey self-administration model of addictive potential
Text: Dose-related effects of the test articles were examined, using two or more doses of each drug in 3-4 subjects in a double alternation schedule in which each unit dose (or vehicle) was used in two consecutive sessions before a change in unit dose.
Addictive potential of opioid compounds and opioid conjugates of the invention may be assessed through the use of squirrel monkey models as known in the art.
Under the double alternation schedule, each unit dose (or vehicle) was available for intravenous self-administration for two consecutive sessions before the unit dose was changed. In this way, it was possible to establish the function relating unit dose of intravenous drug to (i) number of injections per session, and/or (ii) the percentage of total responses that occur on the lever leading to self-administration (injection-lever responding, % ILR). Unit doses of drugs ranged from 0.01 to 3.2 mg/kg/injection.

human mu opioid receptor [1] = molecular target: T1, human mu opioid receptor (Homo sapiens, UniProt P35372); assay: biochemical; assay type: binding
T1 construct: expressed in transfected cells; host or cells: CHO cells
T1 sequence (P35372 whole entry): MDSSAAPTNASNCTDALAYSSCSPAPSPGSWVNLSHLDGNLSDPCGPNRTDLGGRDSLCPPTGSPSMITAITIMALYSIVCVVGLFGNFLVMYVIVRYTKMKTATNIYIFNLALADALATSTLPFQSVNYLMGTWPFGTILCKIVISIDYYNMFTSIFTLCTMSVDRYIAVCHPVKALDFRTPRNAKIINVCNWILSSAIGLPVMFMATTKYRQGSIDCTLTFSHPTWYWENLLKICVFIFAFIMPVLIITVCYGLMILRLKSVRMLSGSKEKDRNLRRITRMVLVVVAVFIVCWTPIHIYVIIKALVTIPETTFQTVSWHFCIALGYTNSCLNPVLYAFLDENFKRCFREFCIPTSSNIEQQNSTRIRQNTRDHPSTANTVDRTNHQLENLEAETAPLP
Method: Radioligand displacement was measured using scintillation proximity assays (SPA).
Briefly, serial dilutions of the test compounds were placed in a 96-well plate to which were added SPA beads, membrane and radioligand. The assay conditions for each opioid receptor subtype are described in Table 10 below. The plates were incubated for 8 hours-overnight at room temperature, spun at 1000 rpm to pellet the SPA beads, and radioactivity was measured using the TopCount® microplate Scintillation counter. Specific binding at each concentration of test compound was calculated by subtracting the non-specific binding measured in the presence of excess cold ligand. IC50 values were obtained by non-linear regression of specific binding versus concentration curves and Ki values were calculated using Kd values that were experimentally pre-determined for each lot of membrane preparations.

human mu opioid receptor [2] = molecular target: T1, human mu opioid receptor; assay: cell-based; conditions: for Emax: read-out: % max effect, mu opioid receptor
Method: Studies were conducted in CHO cells heterologously expressing the cloned human mu, kappa or delta opioid receptors. cAMP was measured using a cAMP HiRange homogenous time-resolved fluorescence assay (HTRF Assay), that is based on a competitive immunoassay principle (Cisbio, Cat.#62AM6PEC).
Briefly, suspensions of cells expressing either the mu, kappa or delta opioid receptors were prepared in buffer containing 0.5 mM isobutyl-methyl xanthine (IBMX). […] EC50 values were calculated for each compound from a sigmoidal dose-response plot of concentrations versus maximum response. To determine if the compounds behaved as full or partial agonists in the system, the maximal response at the highest tested concentrations of compounds were compared to that produced by a known full agonist.

[3] = Pharmacokinetics following intravenous (IV) dosing; assay type: in vivo, Sprague-Dawley rats; set-up: Cmax: unit: ng/mL; conditions: for Vd: read-out: Vss
Text: (§1) There were 3 rats/group. All animals were food fasted overnight. […] The predose sample was collected from the JVC.
(§2) Following the last collection point, the animals were euthanized.

[4] = Pharmacokinetics following oral (PO) dosing; assay type: in vivo, Sprague-Dawley rats; set-up: Cmax: unit: ng/mL
Text: as §1, §2

[5] = male, Sprague-Dawley, rat, plasma, hydroxycodone series, 1 mg/kg IV, Mean ± SD
[6] = male, Sprague-Dawley, rat, plasma, hydroxycodone series, 1 mg/kg IV, Mean ± SD, read-out: Cmax
[7] = male, Sprague-Dawley, rat, plasma, hydroxycodone series, 1 mg/kg IV, Mean ± SD, read-out: T1/2(z)
[8] = CHO-K1 membranes, [3H]DAMGO 6 nM, read-out: Ki, Mu opioid receptor
[9] = maximal response at the highest tested concentration
[10] = read-out: EC50, mu opioid receptor
[11] = codeine series, 5 mg/kg oral, Mean ± SD
[12] = male, Sprague-Dawley, rat, plasma, po, 5 mg/kg
[13] = male, Sprague-Dawley, rat, plasma, hydroxycodone series, 5.0 mg/kg oral, Mean ± SD
[14] = male, Sprague-Dawley, rat, plasma, iv, 1 mg/kg

Structure (SMILES)	Ki (human mu opioid receptor [1])	EC50 (human mu opioid receptor [2])	Emax (human mu opioid receptor [2])	AUC [3, 5]	AUC(0-inf) [3, 5]	MRT last [3, 5]	clearance [3, 5]	Cmax [3, 6]	half-life [3, 7]	Vd [3, 5]	Ki (human mu opioid receptor [1]; [8])	Emax (human mu opioid receptor [2]; [9])	EC50 (human mu opioid receptor [2]; [10])	further results
COCCOCCOCCOC1C=CC2C3Cc4ccc(O)c5c4C2(CCN3C)C1O5 (stereo not drawn) [α-6-mPEG3-O-morphine]	50.7 nM	270 nM	100%											subjects showing addictive behavior (squirrel monkeys; 0.1 mg/kg/injection): 33%; subjects showing addictive behavior (squirrel monkeys; 0.3 mg/kg/injection): all animals
COCCOCCOCCOC1CCC2(O)C3Cc4ccc(OC)c5c4C2(CCN3C)C1O5 (stereo not drawn) [α-6-mPEG3-O-hydroxycodone, α-6-mPEG3-O-oxycodone]				230 ng·h/mL	233 ng·h/mL	32.5 min	71.7 ± 4.99 mL/min/kg	746 ± 2.08 ng/mL	48.5 ± 7.83 min	2.62 ± 0.206 L/kg	775 nM	108%	2830 nM	subjects showing addictive behavior (squirrel monkeys; 0.1 mg/kg/injection): 25%; subjects showing addictive behavior (squirrel monkeys; 0.3 mg/kg/injection): 50%; subjects showing addictive behavior (squirrel monkeys; 1 mg/kg/injection): 100%
COc1ccc2c3c1O[C@H]1[C@@H](O)C=C[C@H]4[C@@H](C2)N(C)CC[C@@]341 [Codeine, codeine, reference compound]														AUCall ([3]; codeine series, 1 mg/kg IV): 11000 ± 1600 ng·min/mL; AUCinf ([3]; codeine series, 1 mg/kg IV): 11400 ± 2070 ng·min/mL; CL ([3]; codeine series, 1 mg/kg IV): 89.7 ± 15.3 mL/min/kg; Cmax ([3]; codeine series, 1 mg/kg IV): 469 ± 20.4 ng/mL; MRTlast ([3]; codeine series, 1 mg/kg IV): 40.2 ± 9.08 min; Vss ([3]; codeine series, 1 mg/kg IV): 4.14 ± 0.700 L/kg; AUCall [4, 11]: 328 ± 216 ng·min/mL; Cmax [4, 11]: 6.24 ± 2.51 ng/mL; MRTlast [4, 11]: 33.2 ± 12.9 min; AUCinf ([4]; codeine series, 5 mg/kg oral, Mean ± SD, # n = 1, * n = 2): 431^# min · ng/mL; Tmax ([4]; codeine series, 5 mg/kg oral, median value): 15.0 min; F % ([4]; codeine series, oral bioavailability, 5 mg/kg oral vs 1 mg/kg IV): 0.60%
COCCOC1C=CC2C3Cc4ccc(O)c5c4C2(CCN3C)C1O5 (stereo not drawn) [α-6-mPEG1-O-morphine]	15.7 nM	85 nM	91%											
COCCOCCOCCOCCOCCOC1CCC2(O)C3Cc4ccc(OC)c5c4C2(CCN3C)C1O5 (stereo not drawn) [α-6-mPEG5-O-hydroxycodone, α-6-mPEG5-O-oxycodone]				282 ng·h/mL	295 ng·h/mL	46.2 min	57 ± 6.07 mL/min/kg	622 ± 39.7 ng/mL	62.1 ± 3.85 min	3.3 ± 0.184 L/kg	1860 nM	108%	5040 nM	
COCCOCCOCCOCCOCCOCCOCCOC1C=CC2C3Cc4ccc(O)c5c4C2(CCN3C)C1O5 (stereo not drawn) [α-6-mPEG7-O-morphine]	56.9 nM	508 nM	90%											
COCCOCCOC1CCC2(O)C3Cc4ccc(OC)c5c4C2(CCN3C)C1O5 (stereo not drawn) [α-6-mPEG2-O-hydroxycodone, α-6-mPEG2-O-oxycodone]				200 ng·h/mL	203 ng·h/mL	37 min	83.3 ± 10.8 mL/min/kg	513 ± 48.8 ng/mL	44.6 ± 1.8 min	3.36 ± 0.298 L/kg	632 nM	101%	5010 nM	bioavailability [4, 12]: 9.4%; AUC [4, 13]: 98.5 ng·h/mL; MRT last [4, 13]: 55.4 min; AUC(0-inf) ([4]; male, Sprague-Dawley, rat, plasma, hydroxycodone series, 5.0 mg/kg oral, Mean ± SD, * n = 2): 97.2 ng·h/mL; half-life ([4]; male, Sprague-Dawley, rat, plasma, hydroxycodone series, 5.0 mg/kg oral, Mean ± SD, * n = 2, read-out: T1/2(z)): 48.5 ± 12 min; Cmax ([4]; male, Sprague-Dawley, rat, plasma, hydroxycodone series, 5.0 mg/kg oral, Mean ± SD, read-out: Cmax): 99.4 ± 47.3 ng/mL; Tmax ([4]; male, Sprague-Dawley, rat, plasma, hydroxycodone series, 5.0 mg/kg oral, median value, read-out: Tmax (converted)): 15 min
COCCOCCOCCOC1C=CC2C3Cc4ccc(OC)c5c4C2(CCN3C)C1O5 (stereo not drawn) [α-6-mPEG3-O-codeine]											4260 nM	91%		AUC [3, 14]: 288 ng·h/mL; AUC(0-inf) [3, 14]: 290 ng·h/mL; MRT last [3, 14]: 33.8 min; clearance [3, 14]: 57.7 ± 4.89 mL/min/kg; Cmax ([3]; male, Sprague-Dawley, rat, plasma, iv, 1 mg/kg, read-out: Cmax): 732 ± 27.1 ng/mL; half-life ([3]; male, Sprague-Dawley, rat, plasma, iv, 1 mg/kg, read-out: T1/2(2)): 39.4 ± 1.49 min; Vd [3, 14]: 2.07 ± 0.127 L/kg; AUC [4, 12]: 32 ng·h/mL; AUC(0-inf) [4, 12]: 34.7 ng·h/mL; MRT last [4, 12]: 71 min; bioavailability [4, 12]: 2.39%; Cmax ([4]; male, Sprague-Dawley, rat, plasma, po, 5 mg/kg, read-out: Cmax): 25 ± 6.59 ng/mL; half-life ([4]; male, Sprague-Dawley, rat, plasma, po, 5 mg/kg, read-out: T1/2(2)): 125 ± 64.6 min; Tmax ([4]; male, Sprague-Dawley, rat, plasma, po, 5 mg/kg, read-out: Tmax (converted)): 15 min
COc1ccc2c3c1OC1C(O)CCC4(O)C(C2)N(C)CCC314 (stereo not drawn) [Hydroxycodone, α-6-hydroxycodone, reference compound]													3160 nM	

From patent US20130023553A1, “PEGYLATED OPIOIDS WITH LOW POTENTIAL FOR ABUSE AND SIDE EFFECTS” (Nektar Therapeutics, priority 2010, published 2013)
